# Test results from the NIST ThermoML archive (doi:10.1016/j.fluid.2011.11.028).
# Numbers after ± are expanded uncertainties.
# Columns and labels:
# [1] = cn = amount concentration of the nth substance listed, in mol/dm3; details: 298.15 K, 101 kPa, Liquid, Alternating current cell with electrodes
# [2] = mn = molality of the nth substance listed, in mol/kg; details: 298.15 K, 101 kPa, Liquid; for viscosity: Capillary tube (Ostwald / Ubbelohde) method; for mass density: Vibrating tube method
Structure (SMILES),viscosity ([2]; m1 = 0.2),viscosity ([2]; m1 = 0.4),viscosity ([2]; m1 = 0.6),viscosity ([2]; m1 = 0.8),viscosity ([2]; m1 = 1),viscosity ([2]; m1 = 1.2),mass density ([2]; m1 = 0.2),mass density ([2]; m1 = 0.4),mass density ([2]; m1 = 0.6),mass density ([2]; m1 = 0.8),mass density ([2]; m1 = 1),mass density ([2]; m1 = 1.2),also measured
CCCCCCCC[n+]1ccn(C)c1.[Cl-] [1-methyl-3-octylimidazolium chloride] + O,,,,,,,,,,,,,molar conductivity ([1]; c1 = 0.0003264): 0.0101 ± 0.0004 S·m2/mol; molar conductivity ([1]; c1 = 0.000434): 0.0101 ± 0.0004 S·m2/mol; molar conductivity ([1]; c1 = 0.0005416): 0.01 ± 0.0004 S·m2/mol; molar conductivity ([1]; c1 = 0.0006484): 0.01 ± 0.0004 S·m2/mol; molar conductivity ([1]; c1 = 0.0007536): 0.01 ± 0.0004 S·m2/mol; molar conductivity ([1]; c1 = 0.0008878): 0.00997 ± 0.0004 S·m2/mol; molar conductivity ([1]; c1 = 0.001103): 0.00995 ± 0.0004 S·m2/mol; molar conductivity ([1]; c1 = 0.001269): 0.00993 ± 0.0004 S·m2/mol; molar conductivity ([1]; c1 = 0.001538): 0.0099 ± 0.0004 S·m2/mol; molar conductivity ([1]; c1 = 0.001689): 0.00989 ± 0.0004 S·m2/mol; molar conductivity ([1]; c1 = 0.001863): 0.00987 ± 0.0004 S·m2/mol
O=C[C@H](O)[C@@H](O)[C@H](O)CO [D-xylose] + O,0.953 ± 0.007 mPa·s,1.022 ± 0.007 mPa·s,1.096 ± 0.008 mPa·s,1.175 ± 0.008 mPa·s,1.258 ± 0.009 mPa·s,1.344 ± 0.009 mPa·s,1007.79 ± 0.06 kg/m3,1018.1 ± 0.09 kg/m3,1028.02 ± 0.13 kg/m3,1037.53 ± 0.16 kg/m3,1046.69 ± 0.19 kg/m3,1055.41 ± 0.22 kg/m3,
O=C[C@H](O)[C@@H](O)[C@@H](O)[C@H](O)CO [(+)-galactose] + O,0.97 ± 0.007 mPa·s,1.06 ± 0.007 mPa·s,1.16 ± 0.008 mPa·s,1.267 ± 0.009 mPa·s,1.381 ± 0.01 mPa·s,1.5 ± 0.011 mPa·s,1010.73 ± 0.07 kg/m3,1023.81 ± 0.11 kg/m3,1036.28 ± 0.16 kg/m3,1048.23 ± 0.2 kg/m3,1059.6 ± 0.2 kg/m3,1070.53 ± 0.27 kg/m3,
CCCCn1cc[n+](C)c1.[Cl-] [1-butyl-3-methylimidazolium chloride] + O,,,,,,,,,,,,,molar conductivity ([1]; c1 = 0.0004734): 0.0107 ± 0.00043 S·m2/mol; molar conductivity ([1]; c1 = 0.0006936): 0.0106 ± 0.00042 S·m2/mol; molar conductivity ([1]; c1 = 0.0008909): 0.0106 ± 0.00042 S·m2/mol; molar conductivity ([1]; c1 = 0.001113): 0.0105 ± 0.00042 S·m2/mol; molar conductivity ([1]; c1 = 0.001311): 0.0105 ± 0.00042 S·m2/mol; molar conductivity ([1]; c1 = 0.001497): 0.0105 ± 0.00042 S·m2/mol; molar conductivity ([1]; c1 = 0.00167): 0.0105 ± 0.00042 S·m2/mol; molar conductivity ([1]; c1 = 0.001839): 0.0104 ± 0.00042 S·m2/mol; molar conductivity ([1]; c1 = 0.001984): 0.0104 ± 0.00042 S·m2/mol; molar conductivity ([1]; c1 = 0.002099): 0.0104 ± 0.00042 S·m2/mol
O=C[C@H](O)[C@H](O)[C@H](O)CO [D-ribose] + O,0.949 ± 0.007 mPa·s,1.011 ± 0.007 mPa·s,1.077 ± 0.007 mPa·s,1.145 ± 0.008 mPa·s,1.215 ± 0.008 mPa·s,1.278 ± 0.009 mPa·s,1007.85 ± 0.06 kg/m3,1018.22 ± 0.09 kg/m3,1028.18 ± 0.13 kg/m3,1037.77 ± 0.16 kg/m3,1046.98 ± 0.19 kg/m3,1055.89 ± 0.22 kg/m3,
CCCCCCn1cc[n+](C)c1.[Cl-] [1-hexyl-3-methylimidazolium chloride] + O,,,,,,,,,,,,,molar conductivity ([1]; c1 = 0.0001239): 0.0103 ± 0.00041 S·m2/mol; molar conductivity ([1]; c1 = 0.0002407): 0.0103 ± 0.00041 S·m2/mol; molar conductivity ([1]; c1 = 0.0003449): 0.0102 ± 0.00041 S·m2/mol; molar conductivity ([1]; c1 = 0.0004557): 0.0102 ± 0.00041 S·m2/mol; molar conductivity ([1]; c1 = 0.0005824): 0.0102 ± 0.00041 S·m2/mol; molar conductivity ([1]; c1 = 0.0007219): 0.0101 ± 0.0004 S·m2/mol; molar conductivity ([1]; c1 = 0.0008733): 0.0101 ± 0.0004 S·m2/mol; molar conductivity ([1]; c1 = 0.0009879): 0.0101 ± 0.0004 S·m2/mol; molar conductivity ([1]; c1 = 0.001214): 0.0101 ± 0.0004 S·m2/mol; molar conductivity ([1]; c1 = 0.001417): 0.01 ± 0.0004 S·m2/mol; molar conductivity ([1]; c1 = 0.001669): 0.01 ± 0.0004 S·m2/mol; molar conductivity ([1]; c1 = 0.001927): 0.00999 ± 0.0004 S·m2/mol
CCCCCCCCCCn1cc[n+](C)c1.[Cl-] [1-decyl-3-methylimidazolium chloride] + O,,,,,,,,,,,,,molar conductivity ([1]; c1 = 0.0001226): 0.00997 ± 0.0004 S·m2/mol; molar conductivity ([1]; c1 = 0.0002378): 0.00993 ± 0.0004 S·m2/mol; molar conductivity ([1]; c1 = 0.0003622): 0.0099 ± 0.0004 S·m2/mol; molar conductivity ([1]; c1 = 0.0004428): 0.00987 ± 0.0004 S·m2/mol; molar conductivity ([1]; c1 = 0.0005678): 0.00984 ± 0.00039 S·m2/mol; molar conductivity ([1]; c1 = 0.000679): 0.00981 ± 0.00039 S·m2/mol; molar conductivity ([1]; c1 = 0.0007671): 0.0098 ± 0.00039 S·m2/mol; molar conductivity ([1]; c1 = 0.0008693): 0.00978 ± 0.00039 S·m2/mol; molar conductivity ([1]; c1 = 0.001044): 0.00975 ± 0.00039 S·m2/mol; molar conductivity ([1]; c1 = 0.001192): 0.00974 ± 0.00039 S·m2/mol; molar conductivity ([1]; c1 = 0.001374): 0.00972 ± 0.00039 S·m2/mol; molar conductivity ([1]; c1 = 0.00153): 0.0097 ± 0.00039 S·m2/mol
O=C[C@H](O)[C@@H](O)[C@H](O)[C@H](O)CO [D-glucose] + O,0.974 ± 0.007 mPa·s,1.066 ± 0.007 mPa·s,1.166 ± 0.008 mPa·s,1.273 ± 0.009 mPa·s,1.385 ± 0.01 mPa·s,1.501 ± 0.011 mPa·s,1010.39 ± 0.14 kg/m3,1023.12 ± 0.16 kg/m3,1035.32 ± 0.2 kg/m3,1046.92 ± 0.23 kg/m3,1057.99 ± 0.26 kg/m3,1068.59 ± 0.29 kg/m3,
